Consider 22 compounds from patent publication US11312727B1, “Macrocyclic flu endonuclease inhibitors” (Janssen BioPharma, Inc., priority 2018, dated 2022).

The structures appear in SMILES notation.

One data set is described as follows: in vitro. Particulars: human, CC50, uninfected A549 cells, CellTiter-Glo.
Data set [1] deals with Influenza strain A549 A/WSN/33 (H1N1). As to the kind of experiment: microbe, parasite or virus in culture. The data set is classed as cell-based. To be noted: Influenza A virus, A549, 20 h, A549 cells, influenza A/WSN/33 (H1N1), 20 hours incubation; read-out: A549_A(H1N1) EC50.

For the compound `O=C1c2c(O)c(=O)ccn2N2CN1C/C=C/CCc1cc(F)c(F)cc1[C@@H]2c1ccccn1` (single isomer, unassigned) [Compound 58A, (16*R,E)-13,14-difluoro-4-hydroxy-16-(pyridin-2-yl)-7,10,11,16-tetrahydro-6,17-methanobenzo[k]pyrido[1,2-b][1,2,5]triazacyclotridecine-3,5-dione], in the data set “in vitro”, the CC50 was above 2 µM. In addition, in data set [1], the EC50 is 0.044 µM.

Take `O=C1c2c(O)c(=O)ccn2N2CN1C/C=C/CCc1cc(F)c(F)cc1[C@H]2c1ccccn1` (single isomer, unassigned) [Compound 58B, (16*S,E)-13,14-difluoro-4-hydroxy-16-(pyridin-2-yl)-7,10,11,16-tetrahydro-6,17-methanobenzo[k]pyrido[1,2-b][1,2,5]triazacyclotridecine-3,5-dione]: in “in vitro”, the CC50 was above 2 µM. The EC50 in data set [1] was above 1 µM.

`O=C1c2c(O)c(=O)ccn2N2CN1C/C=C\COc1c(F)cccc1[C@@H]2c1cccc(F)c1` (single isomer, unassigned) [Compound 59B, (18*S,Z)-4-fluoro-18-(3-fluorophenyl)-12-hydroxy-6,9-dihydro-18H-10,17-methanobenzo[b]pyrido[1,2-f][1]oxa[5,6,9]triazacyclotridecine-11,13-dione] displayed a CC50 in “in vitro” above 2 µM. In data set [1], the EC50 amounted to 0.497 µM.

In the case of `O=C1c2c(O)c(=O)ccn2N2CN1C/C=C\COc1c(F)cccc1[C@H]2c1ccccc1` (single isomer, unassigned) [Compound 61A, (18*R,Z)-4-fluoro-12-hydroxy-18-phenyl-6,9-dihydro-18H-10,17-methanobenzo[b]pyrido[1,2-f][1]oxa[5,6,9]triazacyclotridecine-11,13-dione], the CC50 in the data set “in vitro” was above 2 µM. In addition, in data set [1], the EC50 turned out to be 0.005 µM.

With `O=C1c2c(O)c(=O)ccn2N2CN1C/C=C\COc1c(F)cccc1[C@@H]2c1ccccc1` (single isomer, unassigned) [Compound 61B, (18*S,Z)-4-fluoro-12-hydroxy-18-phenyl-6,9-dihydro-18H-10,17-methanobenzo[b]pyrido[1,2-f][1]oxa[5,6,9]triazacyclotridecine-11,13-dione], the CC50 in the data set “in vitro” is above 2 µM. Besides, the EC50 in data set [1] worked out at 0.155 µM.

Compound `O=C1c2c(O)c(=O)ccn2N2CN1C/C=C\COc1ccccc1[C@H]2c1cccc(F)c1` (single isomer, unassigned) [Compound 63A, (18*R,Z)-18-(3-fluorophenyl)-12-hydroxy-6,9-dihydro-18H-10,17-methanobenzo[b]pyrido[1,2-f][1]oxa[5,6,9]triazacyclotridecine-11,13-dione] registered a CC50 in the data set “in vitro” above 2 µM. Besides, the EC50 in data set [1] was above 1 µM.

`O=C1c2c(O)c(=O)ccn2N2CN1C/C=C\COc1ccccc1[C@@H]2c1cccc(F)c1` (single isomer, unassigned) [Compound 63B, (18*S,Z)-18-(3-fluorophenyl)-12-hydroxy-6,9-dihydro-18H-10,17-methanobenzo[b]pyrido[1,2-f][1]oxa[5,6,9]triazacyclotridecine-11,13-dione] returned a CC50 in the data set “in vitro” above 2 µM. Moreover, the EC50 in data set [1] worked out at 0.013 µM.

For `O=C1c2c(O)c(=O)ccn2N2CN1CC/C=C/CCOc1ccccc1[C@H]2c1ccccc1` (single isomer, unassigned) [Compound 65A, (2*R,*Z)-15-hydroxy-2-phenyl-12,13,14,16-tetrahydro-11H-4-oxa-1(1,3)-pyrido[2,1-f][1,2,4]triazina-3(1,2)-benzenacyclodecaphan-7-ene-14,16-dione], the CC50 in the data set “in vitro” was above 10 µM. Further, in data set [1], the EC50 is above 5 µM.

In turn, `O=C1c2c(O)c(=O)ccn2N2CN1CC/C=C\CCOc1ccccc1[C@H]2c1ccccc1` (single isomer, unassigned) [Compound 65C, (2*R,*E)-15-hydroxy-2-phenyl-12,13,14,16-tetrahydro-11H-4-oxa-1(1,3)-pyrido[2,1-f][1,2,4]triazina-3(1,2)-benzenacyclodecaphan-7-ene-14,16-dione] returned a CC50 in “in vitro” above 20 µM. The EC50 in data set [1] amounted to 7.89 µM.

In the case of `O=C1c2c(O)c(=O)ccn2N2CN1CC/C=C/CCOc1ccccc1[C@@H]2c1ccccc1` (single isomer, unassigned) [Compound 65D, (2*S,*E)-15-hydroxy-2-phenyl-12,13,14,16-tetrahydro-11H-4-oxa-1(1,3)-pyrido[2,1-f][1,2,4]triazina-3(1,2)-benzenacyclodecaphan-7-ene-14,16-dione], the CC50 in “in vitro” is above 2 µM. Further, the EC50 in data set [1] is 0.066 µM.

In the case of `O=C1c2c(O)c(=O)ccn2N2CN1CCC/C=C/COc1ccccc1[C@H]2c1ccccc1` (single isomer, unassigned) [Compound 67A, (2*R,*Z)-15-hydroxy-2-phenyl-12,13,14,16-tetrahydro-11H-4-oxa-1(1,3)-pyrido[2,1-f][1,2,4]triazina-3(1,2)-benzenacyclodecaphan-6-ene-14,16-dione], the CC50 in the data set “in vitro” is above 2 µM. For the same compound, in data set [1], the EC50 is above 1 µM.

As for `O=C1c2c(O)c(=O)ccn2N2CN1CCC/C=C/COc1ccccc1[C@@H]2c1ccccc1` (single isomer, unassigned) [Compound 67B, (2*S,*Z)-15-hydroxy-2-phenyl-12,13,14,16-tetrahydro-11H-4-oxa-1(1,3)-pyrido[2,1-f][1,2,4]triazina-3(1,2)-benzenacyclodecaphan-6-ene-14,16-dione], the CC50 in the data set “in vitro” was above 2 µM. Moreover, the EC50 in data set [1] is above 1 µM.

Compound `O=C1c2c(O)c(=O)ccn2N2CN1C/C=C\COc1cc(F)c(F)cc1[C@@H]2c1ccccn1` (single isomer, unassigned) [Compound 70A, (18*R,*Z)-2,3-difluoro-12-hydroxy-18-(pyridin-2-yl)-6,9-dihydro-18H-10,17-methanobenzo[b]pyrido[1,2-f][1]oxa[5,6,9]triazacyclotridecine-11,13-dione] had a CC50 in the data set “in vitro” above 20 µM. Moreover, the EC50 in data set [1] is above 10 µM.

In turn, `O=C1c2c(O)c(=O)ccn2N2CN1C/C=C\COc1cc(F)c(F)cc1[C@H]2c1ccccn1` (single isomer, unassigned) [Compound 70B, (18*S,*Z)-2,3-difluoro-12-hydroxy-18-(pyridin-2-yl)-6,9-dihydro-18H-10,17-methanobenzo[b]pyrido[1,2-f][1]oxa[5,6,9]triazacyclotridecine-11,13-dione] yielded a CC50 in the data set “in vitro” above 0.2 µM. Also, the EC50 in data set [1] was 0.032 µM.

As for `O=C1c2c(O)c(=O)ccn2N2CN1C/C=C\COc1cc(F)ccc1[C@@H]2c1ccccn1` (single isomer, unassigned) [Compound 71A, (18*R,*Z)-3-fluoro-12-hydroxy-18-(pyridin-2-yl)-6,9-dihydro-18H-10,17-methanobenzo[b]pyrido[1,2-f][1]oxa[5,6,9]triazacyclotridecine-11,13-dione], the CC50 in “in vitro” was above 0.2 µM. In addition, the EC50 in data set [1] was 0.034 µM.

Take `O=C1c2c(O)c(=O)ccn2N2CN1C/C=C\COc1cc(F)ccc1[C@H]2c1ccccn1` (single isomer, unassigned) [Compound 71B, (18*S,*Z)-3-fluoro-12-hydroxy-18-(pyridin-2-yl)-6,9-dihydro-18H-10,17-methanobenzo[b]pyrido[1,2-f][1]oxa[5,6,9]triazacyclotridecine-11,13-dione]: the CC50 in “in vitro” is above 20 µM. For the same compound, in data set [1], the EC50 worked out at 7.69 µM.

Take `O=C1c2c(O)c(=O)ccn2N2CN1C/C=C\COc1cc(Cl)ccc1[C@H]2c1ccccc1` (single isomer, unassigned) [Compound 72A, (18*R,Z)-3-chloro-12-hydroxy-18-phenyl-6,9-dihydro-18H-10,17-methanobenzo[b]pyrido[1,2-f][1]oxa[5,6,9]triazacyclotridecine-11,13-dione]: the CC50 in “in vitro” is above 2 µM. The EC50 in data set [1] was above 1 µM.

In turn, `O=C1c2c(O)c(=O)ccn2N2CN1C/C=C\COc1cc(Cl)ccc1[C@@H]2c1ccccc1` (single isomer, unassigned) [Compound 72B, (18*S,Z)-3-chloro-12-hydroxy-18-phenyl-6,9-dihydro-18H-10,17-methanobenzo[b]pyrido[1,2-f][1]oxa[5,6,9]triazacyclotridecine-11,13-dione] gave a CC50 in “in vitro” above 2 µM. For the same compound, in data set [1], the EC50 came to 0.008 µM.

In the data set “in vitro”, `O=C1c2c(O)c(=O)ccn2N2CN1C/C=C\COc1c(ccc(F)c1F)[C@H]2c1ccccc1` (single isomer, unassigned) [Compound 74A, (18*R,Z)-3,4-difluoro-12-hydroxy-18-phenyl-6,9-dihydro-18H-10,17-methanobenzo[b]pyrido[1,2-f][1]oxa[5,6,9]triazacyclotridecine-11,13-dione] gave a CC50 above 2 µM. Moreover, the EC50 in data set [1] is above 1 µM.

`O=C1c2c(O)c(=O)ccn2N2CN1C/C=C\COc1c(ccc(F)c1F)[C@@H]2c1ccccc1` (single isomer, unassigned) [Compound 74B, (18*S,Z)-3,4-difluoro-12-hydroxy-18-phenyl-6,9-dihydro-18H-10,17-methanobenzo[b]pyrido[1,2-f][1]oxa[5,6,9]triazacyclotridecine-11,13-dione] displayed a CC50 in the data set “in vitro” above 0.2 µM. In data set [1], the EC50 was determined as 0.002 µM.

In the data set “in vitro”, `O=C1c2c(O)c(=O)ccn2N2CN1C/C=C\COc1c(Cl)cccc1[C@H]2c1ccccc1` (single isomer, unassigned) [Compound 75A, (18*R,Z)-4-chloro-12-hydroxy-18-phenyl-6,9-dihydro-18H-10,17-methanobenzo[b]pyrido[1,2-f][1]oxa[5,6,9]triazacyclotridecine-11,13-dione] yielded a CC50 above 2 µM. Further, the EC50 in data set [1] came to 0.269 µM.

Compound `O=C1c2c(O)c(=O)ccn2N2CN1C/C=C\COc1c(Cl)cccc1[C@@H]2c1ccccc1` (single isomer, unassigned) [Compound 75B, (18*S,Z)-4-chloro-12-hydroxy-18-phenyl-6,9-dihydro-18H-10,17-methanobenzo[b]pyrido[1,2-f][1]oxa[5,6,9]triazacyclotridecine-11,13-dione] displayed a CC50 in “in vitro” above 0.2 µM. Besides, the EC50 in data set [1] is 0.003 µM.
